Laboratory results: patent US8415300B2, “Sustained release of microcrystalline peptide suspensions” (Medical Research Council Technology, priority 2001, dated 2013)
Where a name gives a salt, the structure may show the parent alone. Each block holds one compound with its values, some of them ahead of it. Starred links: 1 amine or outer side, 2 acyl side, 3 side chain; linkers in the order of their positions; H or OH if unused. Positions of bridges follow the written chain, without caps; N, C: chain ends. Non-standard residues stand in square brackets, D forms with d. Residues, ends and D or L forms follow the SMILES beside them. Groups on a side chain read outwards from the residue. No end group written: not given here. *: point of attachment. dTrp(2-Me) = Cc1[nH]c2ccccc2c1C[C@@H](N)C(=O)O; Trp(2-Me) = Cc1[nH]c2ccccc2c1C[C@H](N)C(=O)O; dPhe(4-Cl) = N[C@H](Cc1ccc(Cl)cc1)C(=O)O; d2Nal = N[C@H](Cc1ccc2ccccc2c1)C(=O)O; d(hCit) = NC(=O)NCCCC[C@@H](N)C(=O)O; Lys(iPr) = CC(C)NCCCC[C@H](N)C(=O)O; Ethylenediamine = C(CN[*:2])N[*:1]; Hyp = O=C(O)[C@@H]1C[C@@H](O)CN1; dCit = NC(=O)NCCC[C@@H](N)C(=O)O; d3Pal = N[C@H](Cc1cccnc1)C(=O)O; Phg = N[C@H](C(=O)O)c1ccccc1; CO = O=C([*:1])[*:2]; Bn = c1ccc(C*)cc1

What was measured:
[1] = Physical form (gel or flowing milky microcrystalline suspension) of the peptide salt mixed with aqueous medium or counter-ion acid; type: physicochemical
Description: Such behavior is not elicited by other salts such as the acetate, which result in the expected, but unwanted, formation of gels with poor bioavailability in vivo.
(§1) 200 μL of 5% mannitol were added to approximately 15 mg of the LHRH antagonist Teverelix trifluoroacetate. […] The suspension is made of microcrystals of about 10 μm length. Microcrystals may clump together to form urchin like structures. The suspension was injected in rats (1 mg) sub-cutaneously and provided the pharmacodynamic effect of testosterone suppression for more than 45 days (FIG. 1).
200 μL of water were added to approximately 15 mg of the LHRH antagonist Teverelix trifluoroacetate.
200 μL of water were added to approximately 15 mg of the LHRH antagonist Teverelix acetate.
In another study, 100 μL of TFA of various concentrations were added to 7.5 mg of the LHRH antagonist Teverelix acetate, with the TFA/Teverelix molar ratio ranging from 1 to 3.
200 μL of 150 mM TFA were added to amounts of the LHRH antagonist Teverelix acetate ranging from 5 to 30 mg (concentration ranging from 25 to 150 mg/mL).
The suspension was freeze-dried overnight.
(§2) The suspension was freeze-dried overnight. […] These suspensions were stable for at least 3 days at room temperature.
The suspension is made of microcrystals of about […] length. Microcrystals may assemble together to form urchin like structures. The suspension was freeze-dried overnight. […]

[2] = Pharmacokinetic analysis: sustained release of the peptide after injection of the suspension; type: in vivo, rats
Description: FIG. 2 is a graph which illustrates the sustained release of the peptide Teverelix for several weeks in rats injected with the suspension of Teverelix trifluoroacetate according to the invention.
as §1

[3] = Stability of reconstituted suspensions at room temperature; type: physicochemical; conditions: reconstituted with water and 0.2 M acetate buffer pH 4.0
Description: as §2

[4] = 100 μL of 150 mM trifluoroacetic acid solution added to 7.5 mg

Compound: [dF]CY[dW]KVCW-NH2 (disulfide 2-7)
physical form after mixing [1, 4]: Free flowing suspensions

Compound: Ac-D-Nal-D-pClPhe-D-Pal-Ser-Tyr-D-Hci-Leu-Lys(iPr)-Pro-D-Ala-NH2 [Teverelix acetate]
physical form after mixing ([1]; 150 mM TFA (3 mols/mol): 200 μL to approximately 15 mg (Example 6) or 1 mL to approximately 75 mg (Example 7)): flowing milky suspension
physical form after freeze-drying and reconstitution ([1]; 150 mM TFA suspension freeze-dried overnight, 1 mL of water and 0.2 M acetate buffer pH 4.0 added): flowing milky suspension
physical form after freeze-drying and reconstitution ([1]; 150 mM TFA suspension freeze-dried overnight, 200 μL of water or 5% mannitol added): flowing milky suspension
physical form after addition of TFA to the gel ([1]; 20 μL of TFA (3 mols/mol) added to gel of approximately 15 mg in 200 μL water): fluid, flowing milky pearly suspension
physical form after mixing ([1]; 100 μL of 150 mM trifluoromethane sulfonic acid solution added to 7.5 mg): free flowing milky suspension
physical form after mixing ([1]; 100 μL of 250 mM H2SO4 added to 7.5 mg (5 mols/mol), after several hours): flowing milky suspension
TFA/Teverelix molar ratio at which a flowing milky suspension was obtained ([1]; 100 μL of TFA of various concentrations added to 7.5 mg, molar ratio ranging from 1 to 3, gels at other ratios): 1.6
physical form after mixing ([1]; 200 μL of 75 mM TFA with approximately 15 mg (1.5 mol/mol)): transparent gel
physical form after mixing ([1]; 200 μL of 100 mM TFA added to approximately 15 mg (2 mols/mol)): flowing milky suspension
concentration at which a flowing milky suspension was obtained ([1]; 200 μL of 150 mM TFA added to 5 to 30 mg (25 to 150 mg/mL)): up to 100 mg/mL
physical form after freeze-drying and reconstitution ([1]; H2SO4 suspension freeze-dried overnight, 100 μl of water or 5% mannitol added): flowing milky suspension
physical form after mixing ([1]; approximately 15 mg in 200 μL of water, vortex one minute): transparent gel
microcrystal length ([1]; suspension from 100 μL of 250 mM H2SO4 and 7.5 mg): about 100 μm
stability of the reconstituted suspensions [3]: at least 3 days

Compound: [dTrp(2-Me)]CF[dW]KTC[Trp(2-Me)]-NH2 (disulfide 2-7)
physical form after mixing [1, 4]: Free flowing suspensions

Compound: D-Nal-c[Cys-Tyr-D-Trp-Lys-Val-Cys]-Trp(2Me)-NH2
physical form after mixing [1, 4]: Free flowing suspensions

Compound: CC(=O)N[C@H](Cc1ccc2ccccc2c1)C(=O)N[C@H](Cc1ccc(Cl)cc1)C(=O)N[C@H](Cc1cccnc1)C(=O)N[C@@H](CO)C(=O)N[C@@H](Cc1ccc(O)cc1)C(=O)N[C@H](CCCCNC(N)=O)C(=O)N[C@@H](CC(C)C)C(=O)N[C@@H](CCCCNC(C)C)C(=O)N1CCC[C@H]1C(=O)N[C@H](C)C(N)=O [Teverelix trifluoroacetate, Ac-D-Nal-D-pClPhe-D-Pal-Ser-Tyr-D-Hci-Leu-Lys(iPr)-Pro-D-Ala-NH2] (Ac-[d2Nal][dPhe(4-Cl)][d3Pal]SY[d(hCit)]L[Lys(iPr)]P[dA]-NH2)
sustained release of the peptide, duration ([2]; rats, 1 mg sub-cutaneously, suspension in 5% mannitol): several weeks

Compound: [dF]CY[dW]KVC[Trp(2-Me)]-NH2 (disulfide 2-7)
physical form after mixing [1, 4]: Free flowing suspensions

Compound: CC(=O)N[C@H](Cc1ccc2ccccc2c1)C(=O)N[C@H](Cc1ccc(Cl)cc1)C(=O)N[C@H](Cc1cccnc1)C(=O)N[C@@H](CO)C(=O)N[C@@H](Cc1ccc(O)cc1)C(=O)N[C@H](CCCNC(N)=O)C(=O)N[C@@H](CC(C)C)C(=O)N[C@@H](CCCNC(=N)N)C(=O)N1CCC[C@H]1C(=O)N[C@H](C)C(N)=O [Cetrorelix acetate, reference compound] (Ac-[d2Nal][dPhe(4-Cl)][d3Pal]SY[dCit]LRP[dA]-NH2)
physical form after mixing ([1]; 100 μL of 200 mM trifluoroacetic acid solution added to 2.5 mg): milky free flowing suspension

The next lines start with the values.

physical form after mixing ([1]; 100 μL of 150 mM benzenesulfonic acid added to 7.5 mg): free flowing suspension
Compound: Ac-D-Nal-D-pClPhe-D-Pal-Ser-Tyr-D-Hci-Leu-Lys(iPr)-Pro-D-Ala-NH2 [Teverelix hydrochloride]

release of the active principle, duration ([2]; highly concentrated aqueous suspension of TFA or sulfate salt injected parenterally, general statement (FIGS. 1 and 2)): several weeks
physical form of highly concentrated aqueous suspension ([1]; as trifluoroacetate (TFA) or sulfate salt, general statement): microcrystalline milky suspension
Compound: Ac-D-Nal-D-pClPhe-D-Pal-Ser-Tyr-D-Hci-Leu-Lys(iPr)-Pro-D-Ala-NH2 [Teverelix]

physical form after mixing ([1]; 100 μL of 5% mannitol-water solution added to approximately 5 mg): milky free flowing suspension
Compound: NCCCC[C@@H]1NC(=O)[C@@H](Cc2c[nH]c3ccccc23)NC(=O)[C@H](c2ccccc2)NC(=O)[C@@H]2C[C@@H](OC(=O)NCCN)CN2C(=O)[C@H](Cc2ccccc2)NC(=O)[C@H](Cc2ccc(OCc3ccccc3)cc2)NC1=O [SOM 230, ETD-carboxy-c[Hyp-Phg-D-Trp-Lys-Tyr(Bzl)-Phe], reference compound] (cyclo([Hyp]([CO-Ethylenediamine])[Phg][dW]KY(Bn)F))
